In ChEMBL document CHEMBL1128692, “Peptidomimetic inhibitors of herpes simplex virus ribonucleotide reductase: a new class of antiviral agents” (J Med Chem, 1995) one finds IC50 and EC50 data, which are given here for 29 compounds.

In general, IC50 refers to the point on the concentration scale where inhibition reaches its midpoint. Higher therefore signals lower potency. For orientation: EC50 means the concentration that produces a half-maximal response.

In experiment [1] the target is Ribonucleotide reductase large subunit (Herpes simplex virus 1). The experiment can be described thus: In vitro inhibitory activity against HSV ribonucleotide reductase.
In experiment [2] the target is Ribonucleotide reductase large subunit (Herpes simplex virus 2). The experiment can be described thus: Inhibitory activity against HSV-2 in baby hamster kidney cell.
Experiment [3] deals with Ribonucleotide reductase large subunit (Herpes simplex virus 1). In words: Inhibitory activity against HSV-1 in baby hamster kidney cell.

Non-standard residues stand in square brackets, D forms with d. Residues, ends and D or L forms follow the SMILES beside them. *: point of attachment. Asp(3,3-(CH2)4) = N[C@H](C(=O)O)C1(C(=O)O)CCCC1; Dibenzylacetyl = O=C(C(Cc1ccccc1)Cc1ccccc1)*; Leu(γ-Me)ol = CC(C)(C)C[C@@H](CO)N*; Hydrocinnamoyl = O=C(CCc1ccccc1)*; tBuAla = CC(C)(C)C[C@H](N)C(=O)O; Butanoyl(2-Et) = CCC(CC)C(=O)*; Chg = N[C@H](C(=O)O)C1CCCCC1; Tle = CC(C)(C)[C@H](N)C(=O)O; NMeV = CN[C@H](C(=O)O)C(C)C; Leu(ol) = CC(C)C[C@H](N)CO; Pyrrolidide = C1CCN(*)C1; Abu = CC[C@H](N)C(=O)O

Compound `CC[C@H](NC(=O)CCc1ccccc1)C(=O)N[C@H](C(=O)N[C@@H](CC(=O)N1CCCC1)C(=O)N[C@@H](CC(=O)O)C(=O)N[C@@H](CC(C)C)C(=O)O)C(C)C` (Hydrocinnamoyl-[Abu]VD(Pyrrolidide)DL-OH) registered an IC50 in experiment [1] of 0.34 µM.

The compound `CC(C)C[C@H](NC(=O)[C@H](CC(=O)O)NC(=O)[C@H](CC(N)=O)NC(=O)[C@@H](NC(=O)[C@@H](NC(=O)C(Cc1ccccc1)Cc1ccccc1)C(C)C)C(C)C)C(=O)O` had an IC50 in experiment [1] of 0.18 µM.

In turn, `CC(C)C[C@H](NC(=O)[C@H](CC(=O)O)NC(=O)[C@H](CC(=O)N1CCCC1)NC(=O)[C@@H](NC(=O)[C@@H](NC(=O)CCc1ccccc1)C(C)(C)C)C(C)C)C(=O)O` (Hydrocinnamoyl-[Tle]VD(Pyrrolidide)DL-OH) yielded an IC50 in experiment [1] of 0.036 µM.

Turning to `CC(C)[C@H](NC(=O)C(Cc1ccccc1)Cc1ccccc1)C(=O)N[C@H](C(=O)N[C@@H](CC(=O)N1CCCC1)C(=O)N[C@H](C(=O)N[C@H](CO)CC(C)(C)C)C1(C(=O)O)CCCC1)C(C)(C)C` (Dibenzylacetyl-V[Tle]D(Pyrrolidide)[Asp(3,3-(CH2)4)]-{Leu(γ-Me)ol}), the values for the EC50 in experiment [2] and in experiment [3] were 14 µM and 12 µM, respectively.

In the case of `CC(C)C[C@H](NC(=O)[C@H](CC(=O)O)NC(=O)[C@H](CC(=O)N1CCCC1)NC(=O)[C@@H](NC(=O)CNC(=O)CCc1ccccc1)C(C)C)C(=O)O` (Hydrocinnamoyl-GVD(Pyrrolidide)DL-OH), in experiment [1], half-maximal inhibition (IC50) required 115 µM.

Compound `CC(C)C[C@H](NC(=O)[C@H](CC(=O)O)NC(=O)[C@H](CC(N)=O)NC(=O)[C@@H](NC(=O)[C@H](C(C)C)N(C)C(=O)C(Cc1ccccc1)Cc1ccccc1)C(C)C)C(=O)O` returned an IC50 in experiment [1] of 0.022 µM.

In experiment [1], `CC(C)C[C@H](NC(=O)[C@H](CC(=O)O)NC(=O)[C@H](CC(N)=O)NC(=O)[C@@H](NC(=O)[C@@H](NC(=O)CCc1ccccc1)C(C)C)C(C)C)C(=O)O` had a half-maximal inhibitory concentration (IC50) of 4 µM.

On to `CC(C)[C@H](NC(=O)[C@H](C(C)C)N(C)C(=O)C(Cc1ccccc1)Cc1ccccc1)C(=O)N[C@@H](CC(=O)N1CCCC1)C(=O)N[C@H](C(=O)N[C@H](CO)CC(C)(C)C)C1(C(=O)O)CCCC1` (Dibenzylacetyl-[NMeV]VD(Pyrrolidide)[Asp(3,3-(CH2)4)]-{Leu(γ-Me)ol}), for which the figures for the EC50 in experiment [2] and in experiment [3] were 6.5 µM and 7 µM, respectively.

As to `CC(C)[C@H](NC(=O)CCc1ccccc1)C(=O)N[C@H](C(=O)N[C@@H](CC(=O)N1CCCC1)C(=O)N[C@@H](CC(=O)O)C(=O)N[C@@H](CC(C)(C)C)C(=O)O)C(C)C` (Hydrocinnamoyl-VVD(Pyrrolidide)D[tBuAla]-OH), the IC50 in experiment [1] amounted to 0.005 µM.

In experiment [1], `CCC(CC)C(=O)N[C@H](C(=O)N[C@@H](CC(=O)N1CCCC1)C(=O)N[C@H](C(=O)N[C@@H](CC(C)C)C(=O)O)C1(C(=O)O)CC=CC1)C(C)(C)C` registered a half-maximal inhibitory concentration (IC50) of 0.0064 µM.

In turn, `CC(=O)N[C@H](C(=O)N[C@H](C(=O)N[C@@H](CC(=O)N1CCCC1)C(=O)N[C@@H](CC(=O)O)C(=O)N[C@@H](CC(C)C)C(=O)O)C(C)C)C(C)C` (Ac-VVD(Pyrrolidide)DL-OH) gave an IC50 in experiment [1] of 0.88 µM.

On to `CC(C)[C@@H](C(=O)N[C@H](C(=O)N[C@@H](CC(=O)N1CCCC1)C(=O)N[C@H](C(=O)N[C@@H](CC(C)(C)C)C(=O)O)C1(C(=O)O)CCCC1)C(C)(C)C)N(C)C(=O)C(Cc1ccccc1)Cc1ccccc1` (Dibenzylacetyl-[NMeV][Tle]D(Pyrrolidide)[Asp(3,3-(CH2)4)][tBuAla]-OH), for which the EC50 in experiment [2] amounted to 30 µM; in experiment [3] it was 35 µM.

`CC(C)C[C@H](NC(=O)[C@H](CC(=O)O)NC(=O)[C@H](CC(=O)N1CCCC1)NC(=O)[C@@H](NC(=O)[C@@H](NC(=O)CCc1ccccc1)C1CCCCC1)C(C)C)C(=O)O` (Hydrocinnamoyl-[Chg]VD(Pyrrolidide)DL-OH) returned an IC50 in experiment [1] of 0.022 µM.

`CC(C)C[C@H](NC(=O)[C@@H](NC(=O)[C@H](CC(=O)N1CCCC1)NC(=O)[C@@H](NC(=O)[C@@H](NC(=O)CCc1ccccc1)C(C)C)C(C)C)C1(C(=O)O)CCCC1)C(=O)O` (Hydrocinnamoyl-VVD(Pyrrolidide)[Asp(3,3-(CH2)4)]L-OH) displayed an IC50 in experiment [1] of 0.001 µM.

Turning to `CC(C)C[C@H](NC(=O)[C@H](CC(=O)O)NC(=O)[C@H](CC(=O)N1CCCC1)NC(=O)[C@@H](NC(=O)[C@H](C(C)C)N(C)C(=O)CCc1ccccc1)C(C)C)C(=O)O` (Hydrocinnamoyl-[NMeV]VD(Pyrrolidide)DL-OH), the IC50 in experiment [1] was 0.0075 µM.

As for `CC(C)C[C@H](NC(=O)[C@H](CC(=O)O)NC(=O)[C@H](CC(=O)N1CCCC1)NC(=O)[C@@H](NC(=O)[C@@H](NC(=O)C(Cc1ccccc1)Cc1ccccc1)C(C)C)C(C)C)C(=O)O` (Dibenzylacetyl-VVD(Pyrrolidide)DL-OH), the midpoint of inhibition in experiment [1], the IC50, lay at 0.0007 µM.

`CC(C)C[C@H](NC(=O)[C@H](CC(=O)O)NC(=O)[C@H](CC(=O)N1CCCC1)NC(=O)[C@@H](NC(=O)[C@@H](NC(=O)CCc1ccccc1)C(C)C)C(C)(C)C)C(=O)O` (Hydrocinnamoyl-V[Tle]D(Pyrrolidide)DL-OH) gave a half-maximal inhibitory concentration (IC50) in experiment [1] of 0.004 µM.

`CC(C)[C@H](NC(=O)CCc1ccccc1)C(=O)N[C@H](C(=O)N[C@@H](CC(=O)N1CCCC1)C(=O)N[C@@H](CC(=O)O)C(=O)N[C@H](CO)CC(C)(C)C)C(C)C` (Hydrocinnamoyl-VVD(Pyrrolidide)D-{Leu(γ-Me)ol}) displayed an IC50 in experiment [1] of 0.034 µM.

Take `CC(C)[C@@H](C(=O)N[C@H](C(=O)N[C@@H](CC(=O)N1CCCC1)C(=O)N[C@H](C(=O)N[C@H](CO)CC(C)(C)C)C1(C(=O)O)CCCC1)C(C)(C)C)N(C)C(=O)CCc1ccccc1` (Hydrocinnamoyl-[NMeV][Tle]D(Pyrrolidide)[Asp(3,3-(CH2)4)]-{Leu(γ-Me)ol}): the values for the EC50 in experiment [2] and in experiment [3] were 35 µM and 52 µM, respectively.

Consider `CC(C)[C@@H](C(=O)N[C@H](C(=O)N[C@@H](CC(=O)N1CCCC1)C(=O)N[C@H](C(=O)N[C@H](CO)CC(C)(C)C)C1(C(=O)O)CCCC1)C(C)(C)C)N(C)C(=O)C(Cc1ccccc1)Cc1ccccc1` (Dibenzylacetyl-[NMeV][Tle]D(Pyrrolidide)[Asp(3,3-(CH2)4)]-{Leu(γ-Me)ol}), for which the EC50 was determined as 4.2 µM in experiment [2] and 3.1 µM in experiment [3].

As to `CC[C@H](C)[C@H](NC(=O)CCc1ccccc1)C(=O)N[C@H](C(=O)N[C@@H](CC(=O)N1CCCC1)C(=O)N[C@@H](CC(=O)O)C(=O)N[C@@H](CC(C)C)C(=O)O)C(C)C` (Hydrocinnamoyl-IVD(Pyrrolidide)DL-OH), in experiment [1], half-maximal inhibition (IC50) required 0.061 µM.

In the case of `CC(C)[C@@H](C(=O)N[C@H](C(=O)N[C@@H](CC(=O)N1CCCC1)C(=O)N[C@@H](CC(=O)O)C(=O)N[C@H](CO)CC(C)(C)C)C(C)(C)C)N(C)C(=O)C(Cc1ccccc1)Cc1ccccc1` (Dibenzylacetyl-[NMeV][Tle]D(Pyrrolidide)D-{Leu(γ-Me)ol}), the EC50 in experiment [2] was 39 µM; in experiment [3] it was 30 µM.

As to `CC(C)C[C@H](NC(=O)[C@H](CC(=O)O)NC(=O)[C@H](CC(=O)N1CCCC1)NC(=O)[C@@H](NC(=O)[C@@H](NC(=O)CCc1ccccc1)C(C)C)C(C)C)C(=O)O` (Hydrocinnamoyl-VVD(Pyrrolidide)DL-OH), the IC50 in experiment [1] came to 0.024 µM.

In experiment [1], `CCC(CC)C(=O)N[C@H](C(=O)N[C@@H](CC(=O)N1CCCC1)C(=O)N[C@@H](CC(=O)O)C(=O)N[C@@H](CC(C)C)C(=O)O)C(C)C` ({Butanoyl(2-Et)}-VD(Pyrrolidide)DL-OH) came in with an IC50 of 0.86 µM.

`CC(C)C[C@H](NC(=O)[C@H](CC(=O)O)NC(=O)[C@H](CC(N)=O)NC(=O)[C@@H](NC(=O)[C@@H](NC(=O)[C@H](C)Cc1ccccc1)C(C)C)C(C)C)C(=O)O` gave an IC50 in experiment [1] of 0.86 µM.

On to `CC(C)[C@@H](C(=O)N[C@H](C(=O)N[C@@H](CC(N)=O)C(=O)N[C@H](C(=O)N[C@H](CO)CC(C)(C)C)C1(C(=O)O)CCCC1)C(C)(C)C)N(C)C(=O)C(Cc1ccccc1)Cc1ccccc1` (Dibenzylacetyl-[NMeV][Tle]N[Asp(3,3-(CH2)4)]-{Leu(γ-Me)ol}), for which the concentration for a half-maximal effect (EC50) in experiment [2] and in experiment [3] was 150 µM each time.

With `CC(C)C[C@H](NC(=O)[C@H](CC(=O)O)NC(=O)[C@H](CC(=O)N1CCCC1)NC(=O)[C@@H](NC(=O)[C@H](C)NC(=O)CCc1ccccc1)C(C)C)C(=O)O` (Hydrocinnamoyl-AVD(Pyrrolidide)DL-OH), in experiment [1], 8.8 µM corresponded to half-maximal inhibition (IC50).

The compound `CC(C)C[C@H](NC(=O)[C@H](CC(=O)O)NC(=O)[C@H](CC(N)=O)NC(=O)[C@@H](NC(=O)[C@@H](NC(=O)[C@@H](C)Cc1ccccc1)C(C)C)C(C)C)C(=O)O` came in with an IC50 in experiment [1] of 11 µM.

Consider `CC(C)C[C@@H](CO)NC(=O)[C@@H](NC(=O)[C@H](CC(=O)N1CCCC1)NC(=O)[C@@H](NC(=O)[C@H](C(C)C)N(C)C(=O)C(Cc1ccccc1)Cc1ccccc1)C(C)(C)C)C1(C(=O)O)CCCC1` (Dibenzylacetyl-[NMeV][Tle]D(Pyrrolidide)[Asp(3,3-(CH2)4)][Leu(ol)]), for which the EC50 in experiment [2] and in experiment [3] was 7.3 µM throughout.
